Test system: Subjects With Active Crohn's Disease With Evidence of Mucosal Ulceration
Assay: Study 3 - Aspartate Aminotransferase (AST) levels
Assay type: in vivo, human
Source text: Double-Blind, Randomized, Placebo-Controlled, Multi-Centre Study to Investigate the Efficacy and Safety of Compound 1 in Subjects With Active Crohn's Disease With Evidence of Mucosal Ulceration. This is a double-blind, randomized, placebo-controlled, multi-centre Phase 2 study to investigate the efficacy and safety of Compound 1 administered once daily for the treatment of active CD with evidence of mucosal ulceration. The pharmacokinetics (including a PK substudy) and pharmacodynamics of Compound 1 and metabolite in CD will also be characterised. A total of 180 eligible subjects will be randomized to receive Compound 1 or placebo in addition to their stable background treatment (eg, corticosteroids, aminosalicylates, or CD-related antibiotics). The study will consist of 2 parts, with total treatment duration of 20 weeks. Randomization in Part 1 will be stratified according the subject's previous anti-TNF exposure/response, CRP level at Screening, and oral corticosteroid use at visit Day −1. After the first 10 weeks of treatment in Part 1, patients will be re-randomized for Part 2 as shown in the diagram below and will be stratified according to the subject's clinical response, previous anti-TNF exposure/response, and oral corticosteroid use at visit Day -1. [table] AST levels determination is available at Quest Diagnostics, Clinical Trials, Quest House, 125-135 Staines Road, Hounslow, Middlesex, TW3 3JB, United Kingdom under Catalogue n#84450. For Study 3, the data are obtained at BARC Europe, 3B,Industrie Park, Zwijnaarde, B-9052 Ghent, Belgium. AST catalyzes the transamination of aspartate and 2-oxoglutarate, forming L-glutamate and oxalacetate. The oxalacetate is reduced to L-malate by malate dehydrogenase, whilst NADH is converted to NAD+, measured spectrophotometrically. Guidelines for the AST value have been issued by the association for Clinical Biochemistry and Laboratory Medicine, 130-132 Tooley Street LONDON SE1 2TU, united Kingdom, wherein the AST value should be below 34 U/l in Female and below 45 U/L in male. As disclosed in the respective study protocols for Study 1 or 2, at week 12, depending on the outcome of their treatment, the subjects may be continued in their initial treatment course, or reassigned to another treatment group in a randomized blinded fashion until week 24. Therefore, the number of subjects (N) for the period of either 12 weeks, or 24 weeks is provided to reflect this redistribution at week 12.

[1] = 10 weeks results, 200 mg q.d., week 2
[2] = 10 weeks results, 200 mg q.d., week 4
[3] = 10 weeks results, 200 mg q.d., week 6
[4] = 10 weeks results, 200 mg q.d., week 10
[5] = 20 weeks results, 200 mg q.d. week 0 to 10, to 100 mg q.d. week 10 to 20, week 2
[6] = 20 weeks results, 200 mg q.d. week 0 to 10, to 100 mg q.d. week 10 to 20, week 4
[7] = 20 weeks results, 200 mg q.d. week 0 to 10, to 100 mg q.d. week 10 to 20, week 6
[8] = 20 weeks results, 200 mg q.d. week 0 to 10, to 100 mg q.d. week 10 to 20, week 10
[9] = 20 weeks results, 200 mg q.d. week 0 to 10, to 100 mg q.d. week 10 to 20, week 12
[10] = 20 weeks results, 200 mg q.d. week 0 to 10, to 100 mg q.d. week 10 to 20, week 16
[11] = 20 weeks results, 200 mg q.d. week 0 to 10, to 100 mg q.d. week 10 to 20, week 20
[12] = 20 weeks results, 200 mg q.d. week 0 to 10, to placebo week 10 to 20, week 2
[13] = 20 weeks results, 200 mg q.d. week 0 to 10, to placebo week 10 to 20, week 4
[14] = 20 weeks results, 200 mg q.d. week 0 to 10, to placebo week 10 to 20, week 6
[15] = 20 weeks results, 200 mg q.d. week 0 to 10, to placebo week 10 to 20, week 10
[16] = 20 weeks results, 200 mg q.d. week 0 to 10, to placebo week 10 to 20, week 12
[17] = 20 weeks results, 200 mg q.d. week 0 to 10, to placebo week 10 to 20, week 16
[18] = 20 weeks results, 200 mg q.d. week 0 to 10, to placebo week 10 to 20, week 20
[19] = 20 weeks results, continued 200 mg q.d., week 2
[20] = 20 weeks results, continued 200 mg q.d., week 4
[21] = 20 weeks results, continued 200 mg q.d., week 6
[22] = 20 weeks results, continued 200 mg q.d., week 10
[23] = 20 weeks results, continued 200 mg q.d., week 12
[24] = 20 weeks results, continued 200 mg q.d., week 16
[25] = 20 weeks results, continued 200 mg q.d., week 20
[26] = 20 weeks results, placebo week 0 to 10, to 100 mg q.d. week 10 to 20, week 12
[27] = 20 weeks results, placebo week 0 to 10, to 100 mg q.d. week 10 to 20, week 16
[28] = 20 weeks results, placebo week 0 to 10, to 100 mg q.d. week 10 to 20, week 20

O=C(Nc1nc2cccc(-c3ccc(CN4CCS(=O)(=O)CC4)cc3)n2n1)C1CC1 [Compound 1, cyclopropanecarboxylic acid {5-[4-(1,1-dioxo-thiomorpholin-4-ylmethyl)-phenyl]-[1,2,4]triazolo[1,5-a]pyridin-2-yl}-amide]
Study 3 - AST Mean CFB [1]: 3.0 IU/L
Study 3 - AST Mean percentage CFB [1]: 20.1%
Study 3 - AST Mean CFB [2]: 1.5 IU/L
Study 3 - AST Mean percentage CFB [2]: 13.4%
Study 3 - AST Mean CFB [3]: 1.3 IU/L
Study 3 - AST Mean percentage CFB [3]: 12.0%
Study 3 - AST Mean CFB [4]: 5.4 IU/L
Study 3 - AST Mean percentage CFB [4]: 38.7%
Study 3 - AST Mean CFB [5]: 1.50 IU/L
Study 3 - AST Mean percentage CFB [5]: 11.88%
Study 3 - AST Mean CFB [6]: 3.28 IU/L
Study 3 - AST Mean percentage CFB [6]: 19.48%
Study 3 - AST Mean CFB [7]: 1.40 IU/L
Study 3 - AST Mean percentage CFB [7]: 10.05%
Study 3 - AST Mean CFB [8]: 3.90 IU/L
Study 3 - AST Mean percentage CFB [8]: 23.93%
Study 3 - AST Mean CFB [9]: 1.13 IU/L
Study 3 - AST Mean percentage CFB [9]: 10.30%
Study 3 - AST Mean CFB [10]: 2.82 IU/L
Study 3 - AST Mean percentage CFB [10]: 20.91%
Study 3 - AST Mean CFB [11]: 8.15 IU/L
Study 3 - AST Mean percentage CFB [11]: 50.50%
Study 3 - AST Mean CFB [12]: 0.96 IU/L
Study 3 - AST Mean percentage CFB [12]: 8.86%
Study 3 - AST Mean CFB [13]: 1.96 IU/L
Study 3 - AST Mean percentage CFB [13]: 13.24%
Study 3 - AST Mean CFB [14]: 1.87 IU/L
Study 3 - AST Mean percentage CFB [14]: 12.17%
Study 3 - AST Mean CFB [15]: 7.17 IU/L
Study 3 - AST Mean percentage CFB [15]: 45.50%
Study 3 - AST Mean CFB [16]: 2.87 IU/L
Study 3 - AST Mean percentage CFB [16]: 14.82%
Study 3 - AST Mean CFB [17]: 2.62 IU/L
Study 3 - AST Mean percentage CFB [17]: 16.62%
Study 3 - AST Mean CFB [18]: 3.14 IU/L
Study 3 - AST Mean percentage CFB [18]: 21.09%
Study 3 - AST Mean CFB [19]: 4.24 IU/L
Study 3 - AST Mean percentage CFB [19]: 26.67%
Study 3 - AST Mean CFB [20]: 0.73 IU/L
Study 3 - AST Mean percentage CFB [20]: 11.03%
Study 3 - AST Mean CFB [21]: 1.12 IU/L
Study 3 - AST Mean percentage CFB [21]: 12.72%
Study 3 - AST Mean CFB [22]: 5.61 IU/L
Study 3 - AST Mean percentage CFB [22]: 43.70%
Study 3 - AST Mean CFB [23]: 1.64 IU/L
Study 3 - AST Mean percentage CFB [23]: 18.27%
Study 3 - AST Mean CFB [24]: 3.78 IU/L
Study 3 - AST Mean percentage CFB [24]: 32.98%
Study 3 - AST Mean CFB [25]: 1.53 IU/L
Study 3 - AST Mean percentage CFB [25]: 19.45%
Study 3 - AST Mean CFB [26]: 1.64 IU/L
Study 3 - AST Mean percentage CFB [26]: 16.84%
Study 3 - AST Mean CFB [27]: 0.68 IU/L
Study 3 - AST Mean percentage CFB [27]: 10.89%
Study 3 - AST Mean CFB [28]: 1.10 IU/L
Study 3 - AST Mean percentage CFB [28]: 16.93%
